Results published in patent US11198695B2, “Fused ring derivative having MGAT-2 inhibitory activity” (Shionogi & Co., Ltd., priority 2017, dated 2021).
≈ marks a conversion by molar mass, not a printed value. Where “and” joins values, the source holds several entries; their conditions need not be identical. Equal values may be shown once. Read-outs that look alike come from different tables or passages of the source.

Legend:
[1] = Solubility test (1% DMSO addition, pH 6.8 artificial intestinal juice); assay type: physicochemical; settings: 16 hours at 25° C.; for solubility at 16 h: pH 6.8 artificial intestinal juice with 1% DMSO, kinetic from dmso stock
Description: The solubility of the compound of the present invention was determined under 1% DMSO addition conditions. 10 mmol/L solution of the compound was prepared with DMSO, and 6 μL of the solution of the compound of the present invention was added to 594 μL of pH 6.8 artificial intestinal juice (118 mL of 0.2 mol/L NaOH test solution and water were added to 250 mL of 0.2 mol/L potassium dihydrogen phosphate test solution to reach 1000 mL). The mixture was left standing for 16 hours at 25° C., and the mixture was vacuum-filtered. The filtrate was two-fold diluted with methanol/water=1/1 (V/V), and the compound concentration in the filtrate was measured with HPLC or LC/MS/MS by the absolute calibration method.

[2] = Metabolism stability test; assay type: in vitro ADME; settings: human liver microsomes, 30 minutes, 37° C., NADPH, 0.5 μmol/L of test compound
Description: Using commercially available pooled human hepatic microsomes, the compound of the present invention was reacted for a constant time, a remaining rate was calculated by comparing a reacted sample and an unreacted sample, thereby, a degree of metabolism of the compound of the present invention in liver was assessed.
A reaction was performed (oxidative reaction) at 37° C. for 0 minute or 30 minutes in the presence of 1 mmol/L NADPH in 0.2 mL of a buffer (50 mmol/L Tris-HCl pH 7.4, 150 mmol/L potassium chloride, 10 mmol/L magnesium chloride) containing 0.5 mg protein/mL of human liver microsomes. After the reaction, 50 μL of the reaction solution was added to 100 μL of a methanol/acetonitrile=1/1 (v/v) solution, mixed and centrifuged at 3000 rpm for 15 minutes. The compound of the present invention in the supernatant was quantified by LC/MS/MS, and a remaining amount of the compound of the present invention after the reaction was calculated, letting a compound amount at 0 minute reaction time to be 100%. (Result) Remaining rate was shown at 0.5 μmol/L of test compound.

[3] = target: recombinant human MGAT2 (Homo sapiens (Human), UniProt Q3SYC2); assay: Measurement of human MGAT2 inhibitory activity; assay type: biochemical
Chain of recombinant human MGAT2 (Q3SYC2 whole entry): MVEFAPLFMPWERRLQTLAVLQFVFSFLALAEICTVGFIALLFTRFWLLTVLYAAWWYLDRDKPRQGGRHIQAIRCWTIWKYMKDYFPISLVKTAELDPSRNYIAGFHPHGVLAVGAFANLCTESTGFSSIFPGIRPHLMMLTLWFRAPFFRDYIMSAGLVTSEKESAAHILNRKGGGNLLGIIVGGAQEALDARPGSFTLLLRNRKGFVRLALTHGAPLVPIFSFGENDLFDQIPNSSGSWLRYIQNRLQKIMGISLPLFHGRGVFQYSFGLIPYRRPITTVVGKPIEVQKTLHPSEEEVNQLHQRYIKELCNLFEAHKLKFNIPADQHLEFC
Procedure, shortened: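 Membrane fraction of Sf9 cells expressing N-terminally Flag-tagged full-length human MGAT2, incubated 1 h at room temperature in 100 mmol/L phosphate pH 7.4 with 2 mmol/L DTT. The substrate solution held 30 μmol/L 2-oleoylglycerol and 10 μmol/L oleoyl-CoA. Diolein product was quantified by RapidFire ESI Q-TOF MS against diolein-d5 internal standard; % inhibition was set relative to with/without-enzyme controls.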

[4] = read-out: IC50 (concentration exhibiting 50% enzyme inhibition), Table 53
[5] = read-out: IC50 (concentration exhibiting 50% enzyme inhibition), Table 52

| solubility at 16 h [1] [µM] | Remaining rate (%) [2] [%] | IC50 [3, 4] | IC50 [3, 5] [nM] | Compound | further results |
| --- | --- | --- | --- | --- | --- |
| > 50 | 98.7 | 9.13 nM and < 1 nM |  | Cc1ccc(-n2nc3c(c2C(=O)NS(=O)(=O)C2CC2)C(=O)N[C@@]2(CCc4cc(OCC(F)(F)F)ccc42)C3)nc1 [II-202] |  |
| > 50 | 98.2 | 2.2 nM |  | Cc1ccc(-n2nc3c(c2NC(=O)CS(C)(=N)=O)C(=O)N[C@@]2(CCc4cc(OCC(F)(F)F)ccc42)C3)nc1 (single isomer, unassigned) [II-276] |  |
| > 50 | 103 |  |  | CS(=O)(=O)CC(=O)Nc1c2c(nn1CCCOC(F)(F)F)C[C@@]1(CCc3cc(OCC(F)(F)F)cc(F)c31)NC2=O [II-93] |  |
| > 50 | 82.6 |  |  | Cc1ccc(-n2nc3c(c2NC(=O)CS(C)(=O)=O)C(=O)N[C@@]2(CCOc4cc(OCC(C)(F)F)ccc42)C3)nc1 [II-151] |  |
| > 50 | 99.9 | 1.26 nM |  | Cc1ccc(-n2nc3c(c2NC(=O)C2CS(=O)(=O)C2)C(=O)N[C@@]2(CCOc4cc(OCC(F)(F)F)ccc42)C3)nc1 [II-270] |  |
| > 50 | 94.7 | 0.224 nM |  | Cc1cc(-n2nc3c(c2NC(=O)CS(C)(=O)=O)C(=O)N[C@@]2(CCOc4cc(OCCCC(F)(F)F)ccc42)C3)no1 [II-233] |  |
| > 50 | 102 | < 1 nM |  | CS(=O)(=O)CC(=O)Nc1c2c(nn1-c1ccc(F)cn1)C[C@]1(CCOc3cc(OCC(F)(F)F)ccc31)NC2=O [II-295] |  |
| 45.1 (≈ 27 µg/mL) | 104 |  |  | CS(=O)(=O)CC(=O)Nc1c2c(nn1-c1ccc(F)c(F)c1)C[C@]1(CCOc3cc(CCC(F)(F)F)ccc31)NC2=O [II-225] |  |
| 32.4 (≈ 19.4 µg/mL) | 99.9 |  |  | CS(=O)(=O)CC(=O)Nc1c2c(nn1-c1ccc(C(F)F)cc1)C[C@]1(CCc3cc(OCC(F)(F)F)ccc31)NC2=O [II-174] |  |
|  |  | < 1 nM |  | CS(=O)(=O)CC(=O)Nc1c2c(nn1-c1ccc(C(F)(F)F)cn1)C[C@]1(CCOc3cc(OCC(F)(F)F)ccc31)NC2=O [II-294] |  |
|  |  | 8.19 nM |  | Cc1ccc(-n2nc3c(c2C(=O)NCC2(CO)CC2)C(=O)N[C@@]2(CCc4cc(OCC(F)(F)F)ccc42)C3)cc1F [II-220] |  |
|  |  | 3.3 nM |  | CS(=O)(=O)CC(=O)Nc1c2c(nn1CCC1CC1)C[C@@]1(CCc3cc(N4CC(c5ccccc5)C4)ccc31)NC2=O [II-33] |  |
|  |  | 22.6 nM |  | Cc1cc(-n2nc3c(c2C(=O)NCC(F)(F)F)C(=O)N[C@@]2(CCc4cc(OCC(F)(F)F)ccc42)C3)no1 [II-252] |  |
|  |  | 3.96 nM |  | N#Cc1ccc(-n2nc3c(c2C(=O)NCC2(CO)CCC2)C(=O)N[C@@]2(CCc4cc(OCC(F)(F)F)ccc42)C3)nc1 [II-116] |  |
|  |  | 2.63 nM |  | CS(=O)(=O)CC(=O)Nc1c2c(nn1-c1ccc(C#N)cn1)C[C@]1(NC2=O)c2ccc(OCC(F)(F)F)cc2CC1(F)F [II-87] |  |
|  |  | 6.35 nM |  | N#Cc1ccc(-n2nc3c(c2C(=O)NCC2(C#N)CC2)C(=O)N[C@@]2(CCc4cc(OCC(F)(F)F)ccc42)C3)nc1 [II-190] |  |
|  |  | 3.15 nM |  | Cc1cc(-n2nc3c(c2NC(=O)CS(C)(=O)=O)C(=O)N[C@@]2(CCc4cc(OCC(F)(F)F)ccc42)C3)nnc1C [II-139] |  |
|  |  | 1.96 nM |  | CS(=O)(=O)CC(=O)Nc1c2c(nn1CCC1CC1)C[C@]1(CCc3cc(OCC(F)(F)F)c(F)cc31)NC2=O [II-152] |  |
|  |  | 4.81 nM |  | N#Cc1ccc(-n2nc3c(c2C(=O)NCC(F)(F)F)C(=O)N[C@]2(CCc4cc(OCC(F)(F)F)ccc42)C3)nc1 [II-244] |  |
|  |  | 21 nM |  | CS(=O)(=O)CC(=O)Nc1c2c(nn1CCn1cccn1)C[C@]1(CCOc3cc(OCC(F)(F)F)ccc31)NC2=O [II-27] |  |
|  |  | 28 nM |  | CS(=O)(=O)CC(=O)Nc1c2c(nn1-c1ccc(C#N)cn1)CC1(CN(Cc3ccc(C(F)(F)F)cc3)C1)NC2=O [II-16] |  |
|  |  | 5.86 nM |  | CCOc1ccc([C@]2(C)Cc3nn(-c4ccc(C)cn4)c(NC(=O)CS(C)(=O)=O)c3C(=O)N2)c(F)c1 [II-207] |  |
|  |  | 10.8 nM |  | CS(=O)(=O)CC(=O)Nc1c2c(nn1-c1ccc(C#N)cn1)CC1(CN(c3cccc(C(F)(F)F)c3)C1)NC2=O [II-89] |  |
|  |  | 1.33 nM |  | Cc1cc(-n2nc3c(c2NC(=O)CS(C)(=O)=O)C(=O)N[C@@]2(CCOc4cc(OCC(F)(F)F)ccc42)C3)no1 [II-150] |  |
|  |  | 0.706 nM |  | CS(=O)(=O)CC(=O)Nc1c2c(nn1-c1ccc(C#N)cn1)C[C@]1(CCc3cc(OCC(F)(F)F)ccc31)NC2=O [II-143] |  |

More lines, now with the values behind:

| Compound | solubility at 16 h [1] [µM] | Remaining rate (%) [2] [%] | IC50 [3, 4] | IC50 [3, 5] [nM] | further results |
| --- | --- | --- | --- | --- | --- |
| CS(=O)(=O)CC(=O)Nc1c2c(nn1-c1ccccn1)C[C@]1(CCc3cc(OCCCC(F)(F)F)ccc31)NC2=O [Compound I-23] | 48.2 (≈ 27.8 µg/mL) | 98.7 |  |  |  |
| CS(=O)(=O)CC(=O)Nc1c2c(nn1-c1ccc(C#N)cn1)C[C@]1(CCc3cc(OCC(F)(F)F)ccc31)NC2=O [Compound I-190] | > 50 | 96.6 |  |  |  |
| CS(=O)(=O)CC(=O)Nc1c2c(nn1-c1ccc(C#N)cn1)C[C@](c1ccc(OCC(F)(F)F)cc1F)(C(F)(F)F)NC2=O [Compound I-170] | > 50 | 100 |  | 5.1 |  |
| CS(=O)(=O)CC(=O)Nc1c2c(nn1CCCC(F)(F)F)C[C@@]1(CCc3cc(OCC(F)(F)F)ccc31)NC2=O [Compound I-212] | > 50 | 62.6 |  |  |  |
| Cc1ccc(-n2nc3c(c2NC(=O)CS(C)(=O)=O)C(=O)N[C@@]2(CCc4cc(OCC(F)(F)F)ccc42)C3)nc1 [Compound I-236] | > 50 | 87.6 |  |  |  |
| CS(=O)(=O)CC(=O)Nc1c2c(nn1CCC1CC1)C[C@]1(CCc3cc(OCC(F)(F)F)ccc31)NC2=O [Compound I-8] | > 50 | 102 |  |  |  |
| CS(=O)(=O)CC(=O)Nc1c2c(nn1-c1ccc(C#N)cn1)C[C@@]1(CCc3cc(OCC(F)(F)F)ccc31)NC2=O [Compound I-167] | > 50 | 89 |  | 3.3 |  |
| Cc1ccc(-n2nc3c(c2NC(=O)CS(C)(=O)=O)C(=O)N[C@@]2(CCOc4cc(OCC(F)(F)F)ccc42)C3)nc1 [Compound I-275] | > 50 | 91.8 |  |  |  |
| O=C1N[C@@]2(CCc3cc(OCCCC(F)(F)F)ccc32)Cc2nn(CCC3CC3)c(-c3nn[nH]n3)c21 [Compound I-24] |  | 78.2 |  | 8.82 | Solubility [1]: >50 µM |
| CS(=O)(=O)CC(=O)Nc1c2c(nn1-c1ccc(C#N)cn1)C[C@]1(CCc3cc(N4CC(F)(F)C4)ccc31)NC2=O [Compound I-67] | > 50 | 89 |  | 7 |  |
| CC(C)(C)S(=O)(=O)NC(=O)c1c2c(nn1CCC1CC1)C[C@]1(CCc3cc(OCC(F)(F)F)ccc31)NC2=O [Compound I-118] |  |  |  | 370 |  |
| CS(=O)(=O)Nc1c2c(nn1CCC1CC1)C[C@]1(CCc3cc(OCCCC(F)(F)F)ccc31)NC2=O [Compound I-38] |  |  |  | 625 |  |
| Cc1ccccc1C(=O)NCc1c2c(nn1CCC1CC1)C[C@]1(CCc3cc(OCC(F)(F)F)ccc31)NC2=O [Compound I-146] |  |  |  | 420 |  |
| CS(=O)(=O)CC(=O)Nc1c2c(nn1-c1ccc(C(F)(F)F)cn1)C[C@]1(CCc3cc(OCC(F)(F)F)ccc31)NC2=O [Compound I-189] |  |  |  | 1.2 |  |
| CS(=O)(=O)CC(=O)Nc1c2c(nn1CCC1CC1)C[C@@]1(CCc3cc(OCC(F)(F)F)cc(F)c31)NC2=O [Compound I-249] |  |  |  | 3.5 |  |
| O=C(NCc1c2c(nn1CCC1CC1)C[C@]1(CCc3cc(OCC(F)(F)F)ccc31)NC2=O)c1cocn1 [Compound I-154] |  |  |  | 530 |  |
| CS(=O)(=O)CC(=O)Nc1c2c(nn1-c1cc(C(F)(F)F)cc(C(F)(F)F)c1)C[C@]1(CCc3cc(OCC(F)(F)F)ccc31)NC2=O [Compound I-130] |  |  |  | 505 |  |
| CS(=O)(=O)CC(=O)Nc1nn(CCOCC(F)F)c2c1C(=O)N[C@@]1(CCc3cc(OCCCC(F)(F)F)ccc31)C2 [Compound I-64] |  |  |  | 410 |  |
| CS(=O)(=O)CC(=O)Nc1c2c(nn1-c1cccc(C#N)c1)C[C@]1(CCc3cc(OCC(F)(F)F)ccc31)NC2=O [Compound I-245] |  |  |  | 530 |  |
| O=C(Nc1c2c(nn1CCC1CC1)C[C@]1(CCc3cc(OCC(F)(F)F)ccc31)NC2=O)c1cccnn1 [Compound I-81] |  |  |  | 240 |  |
| COCCS(=O)(=O)NC(=O)c1c2c(nn1CCC1CC1)C[C@]1(CCc3cc(OCC(F)(F)F)ccc31)NC2=O [Compound I-112] |  |  |  | 44.5 |  |
